From patent US20230339886A1 (University of Florida Research Foundation, Incorporated, priority 2020, published 2023) come the findings set out here.

This assay deals with T1, REV-ERBα LBD (human; residues 281-614 Δ324-422) (Homo sapiens, UniProt P20393, DEL324-422).
T1 construct: 6×Histag-REV-ERBα LBD (human; residues 281-614 Δ324-422); made in house; host or cells: Escherichia coli
T1 sequence (P20393 with tags, fused parts or gaps DEL324-422): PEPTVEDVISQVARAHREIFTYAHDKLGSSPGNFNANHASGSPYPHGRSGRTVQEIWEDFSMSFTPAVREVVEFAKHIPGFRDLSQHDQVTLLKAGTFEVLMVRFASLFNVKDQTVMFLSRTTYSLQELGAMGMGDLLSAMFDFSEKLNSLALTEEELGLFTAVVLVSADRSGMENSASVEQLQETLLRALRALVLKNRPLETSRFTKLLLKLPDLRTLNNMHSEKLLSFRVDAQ
T1 sequence (Q9Y618 2335-2356 partner limits assumed): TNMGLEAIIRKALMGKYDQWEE
In words: TR-FRET corepressor interaction assay (REV-ERBα LBD, FITC-SMRT peptide). Particulars: Table 2, read-out: REVERBα agonism (EC50 class, FRET assay). Type of assay: biochemical. The gist of the method:
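Compound serial dilutions (in DMSO, triplicate) incubated 2 h at 4 °C; Tb donor excited at 340 nm, emission read at 495 nm and FITC acceptor at 520 nm. TR-FRET ratio (520/495 nm) plotted against ligand concentration and fitted to a sigmoidal dose-response curve.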
In general terms: In TR-FRET formats the signal depends on donor and acceptor labels being close together.
With `CC(C)S(=O)(=O)N[C@@H](c1cn(CC(C)(C)C)c2cc(-c3ccccc3C(F)(F)F)c(F)cc12)C(F)(F)F` [Example 348, (S)—N-(2,2,2-trifluoro-1-(5-fluoro-1-neopentyl-6-(2-(trifluoromethyl)phenyl)-1H-indol-3-yl)ethyl)propane-2-sulfonamide], the EC50 was 500 to 3000 nM.
Then `O=S(=O)(N[C@@H](c1cn(CC2CC2)c2cc(-c3ccccc3C(F)(F)F)c(F)cc12)C(F)(F)F)C1CC1` [Example 349, (S)—N-(1-(1-(cyclopropylmethyl)-5-fluoro-6-(2-(trifluoromethyl)phenyl)-1H-indol-3-yl)-2,2,2-trifluoroethyl)cyclopropanesulfonamide], with less than 500 nM; and `CC(C)(C)Cn1cc([C@H](NS(=O)(=O)C2CC2)C(F)(F)F)c2cc(F)c(-c3ccccc3)cc21` [Example 350, (S)—N-(2,2,2-trifluoro-1-(5-fluoro-1-neopentyl-6-phenyl-1H-indol-3-yl)ethyl)cyclopropanesulfonamide], with 500 to 3000 nM.
Next, `CC(C)(C)Cn1cc([C@H](NS(=O)(=O)C2CC2)C(F)(F)F)c2cc(F)c(-c3c(F)cccc3C(F)(F)F)cc21` [Example 351, N-((1S)-2,2,2-trifluoro-1-(5-fluoro-6-(2-fluoro-6-(trifluoromethyl)phenyl)-1-neopentyl-1H-indol-3-yl)ethyl)cyclopropanesulfonamide]: less than 500 nM.
Then `Cc1c(-c2ccccc2C(F)(F)F)ccc2c([C@H](NS(=O)(=O)C3CC3)C(F)(F)F)cn(CC(C)(C)C)c12` [Example 353, (S)—N-(2,2,2-trifluoro-1-(7-methyl-1-neopentyl-6-(2-(trifluoromethyl)phenyl)-1H-indol-3-yl)ethyl)cyclopropanesulfonamide], with less than 500 nM; and `CC(C)(C)Cn1cc([C@H](NS(=O)(=O)C2CC2)C(F)(F)F)c2cc(F)c(-c3ccc(F)cc3C(F)(F)F)cc21` [Example 355, (S)—N-(2,2,2-trifluoro-1-(5-fluoro-6-(4-fluoro-2-(trifluoromethyl)phenyl)-1-neopentyl-1H-indol-3-yl)ethyl)cyclopropanesulfonamide], with less than 500 nM.
On to `CC(C)(C)Cn1cc([C@H](NS(=O)(=O)C2CC2)C(F)(F)F)c2cc(C(F)(F)F)c(-c3ccccc3C(F)(F)F)cc21` [Example 357, (S)—N-(2,2,2-trifluoro-1-(1-neopentyl-5-(trifluoromethyl)-6-(2-(trifluoromethyl)phenyl)-1H-indol-3-yl)ethyl)cyclopropanesulfonamide], for which the EC50 was 500 to 3000 nM.
On to `CC(C)(C)Cn1cc([C@H](NS(=O)(=O)C2CC2)C(F)(F)F)c2cc(F)c(-c3cccc(F)c3C(F)(F)F)cc21` [Example 360, (S)—N-(2,2,2-trifluoro-1-(5-fluoro-6-(3-fluoro-2-(trifluoromethyl)phenyl)-1-neopentyl-1H-indol-3-yl)ethyl)cyclopropanesulfonamide], for which the EC50 is less than 500 nM.
Next, `CC(C)(C)Cn1cc([C@H](NS(=O)(=O)C2CC2)C(F)(F)F)c2cc(F)c(-c3ccncc3Cl)cc21` [Example 361, (S)—N-(1-(6-(3-chloropyridin-4-yl)-5-fluoro-1-neopentyl-1H-indol-3-yl)-2,2,2-trifluoroethyl)cyclopropanesulfonamide]: less than 500 nM.
As for `CC(C)(C)Cn1cc([C@H](NS(=O)(=O)C(C)(C)C)C(F)(F)F)c2cc(F)c(-c3ccccc3C(F)(F)F)cc21` [Example 366, (S)-2-methyl-N-(2,2,2-trifluoro-1-(5-fluoro-1-neopentyl-6-(2-(trifluoromethyl)phenyl)-1H-indol-3-yl)ethyl)propane-2-sulfonamide], the EC50 is 500 to 3000 nM.
Take `CC(C)(C)Cn1cc([C@H](NS(=O)(=O)C2CC2)C(F)(F)F)c2ccc(-c3ccc(F)cc3C(F)(F)F)cc21` [Example 367, (S)—N-(2,2,2-trifluoro-1-(6-(4-fluoro-2-(trifluoromethyl)phenyl)-1-neopentyl-1H-indol-3-yl)ethyl)cyclopropanesulfonamide]: the EC50 is less than 500 nM.
Turning to `Cc1c(Br)ccc2c([C@H](NS(=O)(=O)C3CC3)C(F)(F)F)cn(CC(C)(C)C)c12` [Example 368, (S)—N-(1-(6-bromo-7-methyl-1-neopentyl-1H-indol-3-yl)-2,2,2-trifluoroethyl)cyclopropanesulfonamide], the EC50 was 500 to 3000 nM.
Then `CC(C)(C)Cn1cc([C@H](NS(=O)(=O)C2CC2)C(F)(F)F)c2ccc(Br)c(F)c21` [Example 369, (S)—N-(1-(6-bromo-7-fluoro-1-neopentyl-1H-indol-3-yl)-2,2,2-trifluoroethyl)cyclopropanesulfonamide], with 500 to 3000 nM; and `CC(C)Cn1cc([C@H](NS(=O)(=O)C2CC2)C(F)(F)F)c2ccc(-c3ccnn3C)cc21` [Example 370, (S)—N-(2,2,2-trifluoro-1-(1-isobutyl-6-(1-methyl-1H-pyrazol-5-yl)-1H-indol-3-yl)ethyl)cyclopropanesulfonamide], with less than 500 nM; and `CNS(=O)(=O)N[C@@H](c1cn(CC(C)(C)C)c2cc(-c3ccccc3C(F)(F)F)c(F)cc12)C(F)(F)F` [Example 371], with 500 to 3000 nM.
Next, `CC(C)(C)Cn1cc([C@H](NS(=O)(=O)C2CCCC2)C(F)(F)F)c2cc(F)c(-c3ccccc3C(F)(F)F)cc21` [Example 372, (S)—N-(2,2,2-trifluoro-1-(5-fluoro-1-neopentyl-6-(2-(trifluoromethyl)phenyl)-1H-indol-3-yl)ethyl)cyclopentanesulfonamide]: 500 to 3000 nM; `CC(C)(C)Cn1cc([C@H](NS(=O)(=O)C2CC2)C(F)(F)F)c2ccc(-c3c(F)cccc3C(F)(F)F)cc21` [Example 373, (S)—N-(2,2,2-trifluoro-1-(6-(2-fluoro-6-(trifluoromethyl)phenyl)-1-neopentyl-1H-indol-3-yl)ethyl)cyclopropanesulfonamide]: less than 500 nM; `CC(C)(C)Cn1cc([C@H](NS(=O)(=O)C2CCC2)C(F)(F)F)c2cc(F)c(-c3ccccc3C(F)(F)F)cc21` [Example 374, (S)—N-(2,2,2-trifluoro-1-(5-fluoro-1-neopentyl-6-(2-(trifluoromethyl)phenyl)-1H-indol-3-yl)ethyl)cyclobutanesulfonamide]: less than 500 nM.
Regarding `CC(C)(C)Cn1cc([C@H](NS(=O)(=O)C2(C)CC2)C(F)(F)F)c2cc(F)c(-c3ccccc3C(F)(F)F)cc21` [Example 375, (S)-1-methyl-N-(2,2,2-trifluoro-1-(5-fluoro-1-neopentyl-6-(2-(trifluoromethyl)phenyl)-1H-indol-3-yl)ethyl)cyclopropane-1-sulfonamide], the EC50 was less than 500 nM.
Next, `CC(C)(C)Cn1cc([C@H](NS(=O)(=O)C2CC2)C(F)(F)F)c2cc(C(F)(F)F)c(Br)cc21` [Example 376, (S)—N-(1-(6-bromo-1-neopentyl-5-(trifluoromethyl)-1H-indol-3-yl)-2,2,2-trifluoroethyl)cyclopropanesulfonamide]: greater than 3000 nM.
Then `CC(C)Cn1cc([C@H](NS(=O)(=O)C2CC2)C(F)(F)F)c2cc(F)c(-c3ccn[nH]3)cc21` [Example 377, (S)—N-(2,2,2-trifluoro-1-(5-fluoro-1-isobutyl-6-(1H-pyrazol-5-yl)-1H-indol-3-yl)ethyl)cyclopropanesulfonamide], with 500 to 3000 nM.
Then `CC(C)(C)Cn1cc([C@H](NS(=O)(=O)C2CC2)C(F)(F)F)c2cc(F)c(-c3ccn[nH]3)cc21` [Example 380, N-[(1S)-1-[1-(2,2-dimethylpropyl)-5-fluoro-6-(1H-pyrazol-5-yl)indol-3-yl]-2,2,2-trifluoro-ethyl]cyclopropanesulfonamide], with less than 500 nM; and `Cc1cn[nH]c1-c1cc2c(cc1F)c([C@H](NS(=O)(=O)C1CC1)C(F)(F)F)cn2CC(C)(C)C` [Example 381, N-[(1S)-1-[1-(2,2-dimethylpropyl)-5-fluoro-6-(4-methyl-1H-pyrazol-5-yl)indol-3-yl]-2,2,2-trifluoro-ethyl]cyclopropanesulfonamide], with 500 to 3000 nM.
For the compound `CC(C)(C)Cn1cc([C@H](NS(=O)(=O)C2CC2)C(F)(F)F)c2ccc(-c3ncccn3)cc21` [Example 382, (S)—N-(2,2,2-trifluoro-1-(1-neopentyl-6-(pyrimidin-2-yl)-1H-indol-3-yl)ethyl)cyclopropanesulfonamide], the EC50 lay in the range of 500 to 3000 nM.
Next, `CC(C)(C)Cn1cc([C@H](NS(=O)(=O)C2CC2)C(F)(F)F)c2ccc(-c3cccnc3)cc21` [Example 383, (S)—N-(2,2,2-trifluoro-1-(1-neopentyl-6-(pyridin-3-yl)-1H-indol-3-yl)ethyl)cyclopropanesulfonamide]: 500 to 3000 nM; `CC(C)(C)Cn1cc([C@H](NS(=O)(=O)C2CC2)C(F)(F)F)c2ccc(-c3ccncc3C#N)cc21` [Example 384, (S)—N-(1-(6-(3-cyanopyridin-4-yl)-1-neopentyl-1H-indol-3-yl)-2,2,2-trifluoroethyl)cyclopropanesulfonamide]: less than 500 nM; `Cc1nc2ccccn2c1-c1ccc2c([C@H](NS(=O)(=O)C3CC3)C(F)(F)F)cn(CC(C)(C)C)c2c1` [Example 385, (S)—N-(2,2,2-trifluoro-1-(6-(2-methylimidazo[1,2-a]pyridin-3-yl)-1-neopentyl-1H-indol-3-yl)ethyl)cyclopropanesulfonamide]: 500 to 3000 nM.
For `CC(C)(C)Cn1cc([C@H](NS(=O)(=O)C2CC2)C(F)(F)F)c2ccc(-c3cccc(F)c3C#N)cc21` [Example 386, (S)—N-(1-(6-(2-cyano-3-fluorophenyl)-1-neopentyl-1H-indol-3-yl)-2,2,2-trifluoroethyl)cyclopropanesulfonamide], the EC50 is 500 to 3000 nM.
With `CC(C)(C)Cn1cc([C@H](NS(=O)(=O)C2CC2)C(F)(F)F)c2ccc(-c3ccc(F)c(C#N)c3)cc21` [Example 387, (S)—N-(1-(6-(3-cyano-4-fluorophenyl)-1-neopentyl-1H-indol-3-yl)-2,2,2-trifluoroethyl)cyclopropanesulfonamide], the EC50 fell in the range of 500 to 3000 nM.

Broadly, the EC50 is the concentration giving half of the maximal effect.
